Drawing on US4880817A, “O-functionalized derivatives of substituted isoquinolin-3-ols having cardiotonic and/or phosphodiesterase fraction III inhibiting properties and/or renal vasodilating properties” (Ortho Pharmaceutical Corporation, priority 1987, dated 1989), this text covers change in vivo and IC50 for 16 molecules.

Assay [1] deals with adult mongrel dogs. Description: Renal vasodilating activity in anesthetized dogs. It is filed as in vivo, mongrel dog. The settings on record: Canis lupus familiaris. As for the experimental part: Goldberg et al., J. Pharmacol. Exp. Ther., 163, 188 (1968), performed an investigation of the structural requirements for dopamine-like renal vasodilation of phenethylamines and apomorphine. The following procedure is a variation of the assay described in that report.
Adult mongrel dogs were anesthetized and surgically prepared for electromagnetic measurement of renal artery blood flow. A carotid artery was cannulated for measuring arterial blood pressure and drugs were administered intravenously or intraarterially (via the renal artery). Heart rate was monitored with a cardiotachometer. Renal vascular resistance was calculated as the ratio of mean arterial blood pressure to renal artery blood flow. Dopamine was infused intravenously at 3 μg/kg/min for ten minutes (at an infusion rate of about 1 ml/min) to determine responsiveness of each dog to renal dopamine receptor stimulation. Cumulative dose-response data were obtained by infusing a compound of this invention at progressively increasing (usually three-fold) infusion rates, each dose being infused for five minutes. The maximum percent change from pre-drug control in renal artery blood flow (or in renal vascular resistance) was determined for each infusion dose.
RBF, RVR, MABP, and HR values are percent changes in renal blood flow, renal vascular resistance, mean arterial blood pressure, and heart rate, respectively, relative to control values.

For assay [2], the target named is T1, Phosphodiesterase Fraction III (Canis lupus familiaris, UniProt A0A8I3NYE0).
T1 construct: The fraction III enzyme was isolated as an isomzyme from the crude canine heart homogenate; from tissue; host or cells: canine heart (crude homogenate, ion exchange chromatography)
T1 sequence (A0A8I3NYE0 1-1135): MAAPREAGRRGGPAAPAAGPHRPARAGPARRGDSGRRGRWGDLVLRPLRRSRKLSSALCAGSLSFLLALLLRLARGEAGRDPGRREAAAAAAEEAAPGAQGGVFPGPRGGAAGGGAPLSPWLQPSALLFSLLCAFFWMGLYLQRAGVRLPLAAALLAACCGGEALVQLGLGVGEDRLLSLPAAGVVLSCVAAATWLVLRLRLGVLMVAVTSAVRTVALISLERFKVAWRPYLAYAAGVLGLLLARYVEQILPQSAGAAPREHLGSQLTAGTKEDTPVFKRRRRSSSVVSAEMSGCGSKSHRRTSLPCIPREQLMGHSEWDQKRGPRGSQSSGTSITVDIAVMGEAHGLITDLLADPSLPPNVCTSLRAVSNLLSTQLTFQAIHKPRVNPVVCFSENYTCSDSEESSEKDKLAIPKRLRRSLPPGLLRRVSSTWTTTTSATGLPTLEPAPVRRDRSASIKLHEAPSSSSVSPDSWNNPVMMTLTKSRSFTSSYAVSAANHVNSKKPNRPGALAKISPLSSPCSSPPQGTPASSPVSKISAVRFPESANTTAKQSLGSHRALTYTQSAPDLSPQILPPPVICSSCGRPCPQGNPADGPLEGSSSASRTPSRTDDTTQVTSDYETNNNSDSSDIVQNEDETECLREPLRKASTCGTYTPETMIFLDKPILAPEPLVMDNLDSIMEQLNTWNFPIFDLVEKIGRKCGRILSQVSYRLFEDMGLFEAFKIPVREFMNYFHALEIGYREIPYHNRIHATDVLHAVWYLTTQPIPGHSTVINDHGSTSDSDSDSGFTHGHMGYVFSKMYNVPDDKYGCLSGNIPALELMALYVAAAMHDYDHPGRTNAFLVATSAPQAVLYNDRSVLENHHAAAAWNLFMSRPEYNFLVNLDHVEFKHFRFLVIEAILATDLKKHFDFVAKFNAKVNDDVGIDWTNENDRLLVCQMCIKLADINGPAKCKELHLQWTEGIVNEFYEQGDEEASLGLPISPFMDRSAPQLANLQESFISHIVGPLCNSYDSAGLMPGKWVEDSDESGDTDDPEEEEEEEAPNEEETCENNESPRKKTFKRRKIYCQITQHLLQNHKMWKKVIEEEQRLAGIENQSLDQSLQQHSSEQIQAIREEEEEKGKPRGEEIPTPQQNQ
Description: Inhibition of phosphodiesterase fraction III activity. It is filed as biochemical, canine. As for the experimental part:
Thompson et al. described a cyclic nucleotide phosphodiesterase assay in Advances in Cyclic Nucleotide Research, Brooker et al., eds., 10, 69-92 (1979). The following procedure is based on that published assay and measures the ability of compounds to inhibit cyclic nucleotide phosphodiesterase which is an enzyme that converts either cyclic AMP or cyclic GMP to the noncyclized AMP or GMP, respectively.
Compounds were tested at various concentrations in the presence of cyclic AMP (0.10-1.0 μM containing 0.2 microCuries ^3 H-cyclic AMP), cyclic nucleotide phosphodiesterase, and 0.05M Tris-Cl buffer (pH 7.4, containing 5 mM magnesium chloride). After a specified time, the reaction was stopped by heating to 100° C. for 1 minute. After cooling, 0.10 ml of a solution containing snake venom (1 mg/ml) was added, and the reaction was allowed to proceed for 30 min. Termination of this reaction was accomplished by the addition of 1.0 ml of 33 percent DOWEX AGl×8 resin slurry (Dow Chemical Co., Midland, MI) to separate the product from the unconverted substrate. An aliquot was removed from the supernatant and analyzed by liquid scintillation spectrometry.
The fraction III enzyme was isolated as an isomzyme from the crude canine heart homogenate by ion exchange chromatography. The enzyme activity was designated fraction III since it is the third and last phosphodiesterase activity to be eluted from the chromatographic column. The fraction III enzyme has a relatively high affinity and specificity for the cyclic AMP.
Data are presented as the IC50 which is the concentration (in micromoles) of a compound that was required to inhibit 50 percent of the cyclic nucleotide phosphodiesterase activity.

The test system of assay [3] is adult mongrel dogs. Description: Acute in vivo cardiotonic activity in anesthetized dogs. Details: species or system mongrel dog. The settings on record: Canis lupus familiaris, dose 1.87 mpk, iv, relative to controls. On the procedure:
The acute in vivo cardiotonic activity of compounds prepared according to the present invention was determined according to a modification of the procedure described by Alousi et al., Circ.
In particular, adult mongrel dogs were anesthetized with sodium pentobarbital and were artificially respired. Arterial pressure was monitored via a femoral artery, and the pulse pressure was used to trigger a cardiotachometer for heart rate. Left ventricular pressure was determined with a Millar catheter, and dP/dT (the change in ventricular pressure with time) was derived. Cardiac output was determined by measuring ascending aortic blood flow with an electromagnetic flow probe, and myocardial contractile force was measured with a Walton Brodie strain gauge sutured to the right ventricle. Lead II EKG was also recorded.
A standard dose (10 μg/kg/min) of dopamine was administered to assess myocardial responsiveness.
Compounds of the invention were administered by intravenous infusion and the effects on cardiovascular parameters were determined.

Where [4] appears, read: dose 6.2 mpk, relative to controls, read-out: HR: percent change in heart rate.
Setting [5] is: dose 6.2 mpk, relative to controls, read-out: MABP: percent change in mean arterial blood pressure.
Where [6] appears, read: dose 6.2 mpk, relative to controls, read-out: RBF: percent change in renal blood flow.
[7] abbreviates: dose 6.2 mpk, relative to controls, read-out: RVR: percent change in renal vascular resistance.
Where [8] appears, read: cyclic AMP 0.10-1.0 μM, pH 7.4, enzyme from canine heart homogenate, read-out: IC50.
Setting [9] is: read-out: CF: percent change in cardiac force.
Setting [10] is: read-out: HR: percent change in heart rate.
[11] abbreviates: read-out: MABP: percent change in mean arterial blood pressure.
The mark [12] stands for this setting: read-out: dP/dT: maximum percent change in left ventricular pressure with time.
Where [13] appears, read: read-out: HR: percent change in heart rate, dose 6.2 mpk, relative to controls.
Setting [14] is: read-out: MABP: percent change in mean arterial blood pressure, dose 6.2 mpk, relative to controls.
The mark [15] stands for this setting: read-out: RBF: percent change in renal blood flow, dose 6.2 mpk, relative to controls.
Where [16] appears, read: read-out: RVR: percent change in renal vascular resistance, dose 6.2 mpk, relative to controls.
The mark [17] stands for this setting: read-out: HR: percent change in heart rate, dose 1.2 mpk, relative to controls.
Setting [18] is: read-out: MABP: percent change in mean arterial blood pressure, dose 1.2 mpk, relative to controls.
Setting [19] is: read-out: RBF: percent change in renal blood flow, dose 1.2 mpk, relative to controls.
The mark [20] stands for this setting: read-out: RVR: percent change in renal vascular resistance, dose 1.2 mpk, relative to controls.

SMILES strings stand for the structures. Like-named read-outs stand apart in the source and are kept apart here.

Take `CCOc1cc2c(C)nc(OC(C)=O)c([N+](=O)[O-])c2cc1OC` [Cmpd 3]: the change in vivo at 6.2 mg/kg is 2% in assay [1] (setting [4]), -6% in assay [1] (setting [5]), 61% in assay [1] (setting [6]) and -41% in assay [1] (setting [7]). In addition, the half-maximal inhibitory concentration (IC50) – broadly, the concentration that inhibits the measured activity by half – in assay [2] (setting [8]) is 6 µM.
On the same counts, the results for `CCOc1cc2c(C)nc(OC(=O)C(C)(C)C)c([N+](=O)[O-])c2cc1OC` [Cmpd 9] are 0%, -26%, 43%, -48% and 100 µM.
Turning to `CCOc1cc2c(C)nc(OC(=O)N(C)C)c([N+](=O)[O-])c2cc1OC` [Cmpd 10], the change in vivo at 1.87 mg/kg was 70% in assay [3] (setting [9]), -6% in assay [3] (setting [10]), 18% in assay [3] (setting [11]) and 91% in assay [3] (setting [12]). The change in vivo at 6.2 mg/kg in assay [1] (setting [13]) is 10%; in assay [1] (setting [14]), -12%; in assay [1] (setting [15]) it was 46%; in assay [1] (setting [16]), -39%. This molecule also returned a concentration for half-maximal inhibition (IC50) in assay [2] of 45 µM.
On to `CCOc1cc2c(C)nc(OC(=O)c3ccc(OC)cc3)c([N+](=O)[O-])c2cc1OC` [Cmpd 11], for which the change in vivo at 1.87 mg/kg in assay [3] (setting [9]) was 126%; in assay [3] (setting [10]) it was 25%; in assay [3] (setting [11]), -17%; in assay [3] (setting [12]), 47%. Moreover, the IC50 in assay [2] (setting [8]) was 30 µM.
`COC(=O)c1c(OC(C)C)nc(C)c2cc(OC)c(OC)cc12` [Cmpd 18]: the IC50 in assay [2] (setting [8]) is 225 µM.
For the molecule `CCOc1nc(C)c2cc(OC)c(OC)cc2c1C(=O)OC` [Cmpd 19, 4-Carbomethoxy-3-ethoxy-6,7-dimethoxy-1-methylisoquinoline], the IC50 in assay [2] (setting [8]) turned out to be 42 µM.
As for `CCOc1cc2c([N+](=O)[O-])c(OC(C)=O)nc(C)c2cc1OC` [Cmpd 21], the change in vivo at 6.2 mg/kg in assay [1] (setting [4]) is 38%; in assay [1] (setting [5]), 3%; in assay [1] (setting [6]), 40%; in assay [1] (setting [7]) it was -25%. Further, the 50% inhibitory concentration (IC50) in assay [2] (setting [8]) was 14 µM.
With `CCOc1cc2c(C)nc(OS(=O)(=O)N(C)C)c([N+](=O)[O-])c2cc1OC` [Cmpd 26], the change in vivo at 6.2 mg/kg is 0% in assay [1] (setting [4]), 0% in assay [1] (setting [5]), 7% in assay [1] (setting [6]) and -8% in assay [1] (setting [7]). Further, the half-inhibitory concentration (IC50) in assay [2] (setting [8]) is 20.5 µM.
For `CCC(=O)Nc1c(OC(=O)CC)nc(C)c2cc(OC)c(OC)cc12` [Cmpd 33, 6,7-Dimethoxy-1-methyl-4-[N-propanamido]-3-propanoyloxyisoquinoline], the change in vivo at 1.87 mg/kg in assay [3] (setting [9]) came out at 132%; in assay [3] (setting [10]), 18%; in assay [3] (setting [11]), 17%; in assay [3] (setting [12]), 84%. Moreover, the change in vivo at 6.2 mg/kg in assay [1] (setting [4]) was -9%; in assay [1] (setting [5]), -9%; in assay [1] (setting [6]), 41%; in assay [1] (setting [7]), -35%.
As for `COc1cc2c(C)nc(OC(=O)N(c3ccccc3)c3ccccc3)c([N+](=O)[O-])c2cc1OC` [Cmpd 34], the change in vivo at 6.2 mg/kg in assay [1] (setting [13]) was 21%; in assay [1] (setting [14]), -10%; in assay [1] (setting [15]) it was 37%; in assay [1] (setting [16]), -35%. This molecule yielded a 50% inhibitory concentration (IC50) in assay [2] of 35 µM.
With `COc1cc2c(C)nc(OS(=O)(=O)N(C)C)c(N)c2cc1OC` [Cmpd 43], the IC50 in assay [2] (setting [8]) turned out to be 34 µM.
Consider `CCOc1cc2c(C)nc(OC(=O)N(CC)CC)c(N)c2cc1OC` [Cmpd 44], for which the half-maximal inhibitory concentration (IC50) in assay [2] (setting [8]) turned out to be 180 µM.
As for `COc1cc2c(C)nc(OS(=O)(=O)N(C)C)c(N)c2cc1OC` [Cmpd 63], in assay [2] (setting [8]), the 50% inhibitory concentration (IC50) was 185 µM.
For `COc1cc2c(C)nc(OC(=O)N3CCNCC3)c([N+](=O)[O-])c2cc1OC` [Cmpd 70, 6,7-Dimethoxy-1-methyl-4-nitro-3-(1-piperazinyl)carbonyloxyisoquinoline], the change in vivo at 1.2 mg/kg in assay [1] (setting [17]) is 20%; in assay [1] (setting [18]), -1%; in assay [1] (setting [19]), 26%; in assay [1] (setting [20]), -19%. In assay [2], the IC50 came to 78 µM.
Consider `CCOc1cc2c(C)nc(OC(=O)N3CCNCC3)c([N+](=O)[O-])c2cc1OC` [Cmpd 71], for which the half-inhibitory concentration (IC50) in assay [2] amounted to 22 µM.
As for `C=CCNC(=O)Nc1c(OC(=O)N(CC)CC)nc(C)c2cc(OCC)c(OC)cc12` [Cmpd 74], the change in vivo at 1.2 mg/kg in assay [1] (setting [17]) is -16%; in assay [1] (setting [18]), -2%; in assay [1] (setting [19]), 15%; in assay [1] (setting [20]) it was -14%. For the same molecule, the IC50 in assay [2] worked out at 115 µM.
